# Measurements taken from patent US20060241149A1, “Chemical compounds” (priority 2002, published 2006).
# Counter-ions that a name gives are not always drawn.
# Assays:
# TIE2 kinase = target: T1, TIE2 kinase (Homo sapiens, UniProt Q02763); experiment: TIE2 kinase inhibition; type: biochemical
# T1 construct: made in house; host or cells: baculovirus expression (insect cells)
# Excerpt: TIE-2 Enzyme Assay (TIE2-E)
# The TIE-2 enzyme assay uses the LANCE method (Wallac) and GST-TIE2, baculovirus expressed recombinant constructs of the intracellular domains of human TIE2 (amino acids 762-1104, GenBank Accession #L06139) tagged by GST). The method measures the ability of the purified enzymes to catalyse the transfer of the γ-phosphate from ATP onto tyrosine residues in a biotinylated synthetic peptide, D1-15 (biotin-C6-LEARLVAYEGWVAGKKKamide). This peptide phosphorylation is detected using the following procedure: for enzyme preactivation, GST-TIE2 is incubated for 30 mins at room temperature with 2 mM ATP, 5 mM MgCl2 and 12.5 mM DTT in 22.5 MM HEPES buffer (pH7.4). Preactivated GST-TIE2 is incubated for 30mins at room temperature in 96 well plates with 1 uM D1-15 peptide, 80 uM ATP, 10 mM MgCl2, 0.1 mg/ml BSA and the test compound (diluted from a 10 mM stock in DMSO, final DMSO concentration is 2.4%) in 1 mM HEPES (pH7.4). The reaction is stopped by the addition of EDTA (final concentration 45 mM). Streptavidin linked-APC (allophycocyanin, Molecular Probe) and Europium-labeled anti-phosphorylated tyrosine antibody (Wallac) are then added at the final concentration of 17 ug/well and 2.1 ug/well, respectively. The APC signal is measured using an ARVO multilabel counter. (Wallac Berthold Japan). The percent inhibition of activity is calculated relative to blank control wells. The concentration of test compound that inhibits 50% of activity (IC50) is interpolated using nonlinear regression (Levernberg-Marquardt) and the equation, y=Vmax (1−x/(K+x))+Y2, where “K” is equal to the IC50. The IC50 values are converted to pIC50 values, i.e., -log IC50 in Molar concentration.
# TIE-2 Enzyme Assay (TIE2-E2
# The TIE-2 enzyme assay uses the LANCE method (Wallac) and GST-TIE2, baculovirus-expressed recombinant constructs of the intracellular domains of human TIE2 (amino acids 762-1104, GenBank Accession #L06139) tagged by GST). The method measures the ability of the purified enzymes to catalyse the transfer of the γ-phosphate from ATP onto tyrosine residues in a biotinylated synthetic peptide, D1-15 (biotin-C6-LEARLVAYEGWVAGKKKamide). This peptide phosphorylation is detected using the following procedure: for enzyme preactivation, GST-TIE2 is incubated for 2 hours at room temperature with 80 μM ATP, 10 mM MgCl2, 0.1 mg/ml BSA, 0.01% Tween 20 and 1 mM DTT in 100 mM HEPES buffer (pH7.4). […] The APC signal is measured using an Wallac Multilabel 1420 counter. […] The percent inhibition of activity is calculated relative to blank control wells. […]
# Tie2 Fluorescence Polarization Kinase Activity Assay: (TIE2-FP) […]
# Raf kinase = Raf kinase inhibition; type: biochemical
# T1 sequence (Q02763 762-1104): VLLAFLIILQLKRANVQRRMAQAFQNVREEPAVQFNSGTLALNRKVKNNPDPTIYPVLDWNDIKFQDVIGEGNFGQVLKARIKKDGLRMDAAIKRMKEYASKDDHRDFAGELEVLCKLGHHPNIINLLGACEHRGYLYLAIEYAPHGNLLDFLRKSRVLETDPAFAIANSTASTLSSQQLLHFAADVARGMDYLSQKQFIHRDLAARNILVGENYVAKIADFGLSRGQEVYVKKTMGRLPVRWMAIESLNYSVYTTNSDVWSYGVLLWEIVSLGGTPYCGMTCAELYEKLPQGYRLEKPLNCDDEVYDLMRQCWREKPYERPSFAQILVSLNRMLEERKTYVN
IC50 (TIE2 kinase) [nM],IC50 (Raf kinase) [nM],Structure (SMILES)
< 250,–,"CNC(=O)c1cc(Oc2ccc3c(c2)CCN3C(=O)Nc2cccc(C(F)(F)F)c2)ccn1 [Example 3, 5-(2-Methylcarbamoyl-pyridin-4-yloxy)-2,3-dihydro-indole-1-carboxylic acid(3′-trifluoromethyl-phenyl)-amide]"
< 250,–,"CNC(=O)c1cc(Oc2ccc3c(c2)CCN3C(=O)Nc2cc(C(C)(C)C)on2)ccn1 [Example 7, 5-(2-Methylcarbamoyl-pyridin-4-yloxy)-2,3-dihydro-indole-1-carboxylic acid(5-tert-butyl-isoxazol-3-yl)-amide trifluoroacetate]"

# More lines, now with the values behind:
Structure (SMILES),IC50 (TIE2 kinase) [nM],IC50 (Raf kinase) [nM]
"CNC(=O)c1cc(Oc2ccc3c(c2)CCN3C(=O)Nc2ccc(F)c(C(F)(F)F)c2)ccn1 [Example 4, 5-(2-Methylcarbamoyl-pyridin-4-yloxy)-2,3-dihydro-indole-1-carboxylic acid(4′-fluoro-3′-trifluoromethyl-phenyl)-amide]",< 250,–
"CNC(=O)c1cc(Oc2ccc3c(c2)CCN3C(=O)Nc2cc(C(F)(F)F)cc(C(F)(F)F)c2)ccn1 [Example 6, 5-(2-Methylcarbamoyl-pyridin-4-yloxy)-2,3-dihydro-indole-1-carboxylic acid(bis-3′,5′-trifluoromethylphenyl)-amide]",< 250,–
"CNC(=O)c1cc(Oc2ccc3c(c2)CCN3C(=O)Nc2ccc(Cl)c(C(F)(F)F)c2)ccn1 [Example 8, 5-(2-Methylcarbamoyl-pyridin-4-yloxy)-2,3-dihydro-indole-1-carboxylic acid(4′-chloro-3′-trifluoromethyl-phenyl)-amide]",–,< 250
